Results reported in patent US20250346593A1, “IMIDAZO(1,2-1)PYRIDINE DERIVATIVES AS RIPK2 INHIBITORS” (Interline Therapeutics, Inc., priority 2022, published 2025).
Read-outs that look alike come from different tables or passages of the source.

Legend:
[1] = system: NF-κB pathway (SEAP) in THP1-Dual cells; test: THP-1 Dual cell SEAP assay (L18-MDP stimulated); type: cell-based; details: Homo sapiens, THP1-Dual, read-out: NFkB THP1 IC50
[2] = biological target: GST-RIPK2 fusion protein (human RIPK2 amino acids 1-310) (Homo sapiens (Human), UniProt O43353); test: RIPK2 binding competition assay (TR-FRET, Tracer 199)
Sequence of GST-RIPK2 fusion protein (human RIPK2 amino acids 1-310) (O43353 1-310): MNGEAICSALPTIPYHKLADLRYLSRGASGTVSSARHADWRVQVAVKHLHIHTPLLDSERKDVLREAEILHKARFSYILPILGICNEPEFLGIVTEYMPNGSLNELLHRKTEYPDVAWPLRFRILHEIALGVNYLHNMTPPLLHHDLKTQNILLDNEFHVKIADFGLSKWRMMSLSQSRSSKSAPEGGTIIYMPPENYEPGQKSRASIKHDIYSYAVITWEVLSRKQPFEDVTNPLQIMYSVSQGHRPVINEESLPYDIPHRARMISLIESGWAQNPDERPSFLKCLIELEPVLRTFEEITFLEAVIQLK

[3] = read-out: RIPK2 IC50, RIPK2 binding competition assay

SMILES	IC50 [1] [nM]	IC50 [2] [nM]	IC50 [2, 3] [nM]
CNC(=O)c1cn2c(-c3cc(F)nc(NCCCO)c3)cnc2cc1OC [Example 251, 3-{2-fluoro-6-[(3-hydroxypropyl)amino]pyridin-4-yl}-7-methoxy-N-methylimidazo[1,2-a]pyridine-6-carboxamide]	< 50	1 to 2.5	–
CCCS(=O)(=O)Nc1cc(-c2cnc3cc(OC)c(S(=O)(=O)C(C)(C)C)cn23)cc(F)c1OC [Example 275, N-(5-(6-(tert-butylsulfonyl)-7-methoxyimidazo[1,2-a]pyridin-3-yl)-3-fluoro-2-methoxyphenyl)propane-1-sulfonamide]	< 50	< 1	–
COc1cc2ncc(-c3cnc(N)c(C(F)F)c3)n2cc1S(=O)(=O)C(C)(C)C [Example 98, 5-(6-(tert-butylsulfonyl)-7-methoxyimidazo[1,2-a]pyridin-3-yl)-3-(difluoromethyl)pyridin-2-amine]	> 1000	–	> 20
CCCS(=O)(=O)Nc1cc(-c2cnc3cc(OC)c(S(=O)(=O)C(C)(C)C)cn23)cc(C)c1OC [Example 268, N-(5-(6-(tert-butylsulfonyl)-7-methoxyimidazo[1,2-a]pyridin-3-yl)-2-methoxy-3-methylphenyl)propane-1-sulfonamide]	50 to 250	1 to 2.5	–
COc1cc2ncc(-c3cc(Cl)c(N)nc3F)n2cc1S(=O)(=O)C(C)(C)C [Example 75, 5-(6-(tert-butylsulfonyl)-7-methoxyimidazo[1,2-a]pyridin-3-yl)-3-chloro-6-fluoropyridin-2-amine]	50 to 250	2.5 to 20	–
COc1cc2ncc(-c3ccc(O)nc3)n2cc1S(=O)(=O)C(C)(C)C [Example 150, 5-(6-(tert-butylsulfonyl)-7-methoxyimidazo[1,2-a]pyridin-3-yl)pyridin-2-ol]	> 1000	–	> 20
CCCS(=O)(=O)Nc1cc(-c2cnc3cc(OC)c(S(=O)(=O)C(C)(C)C)cn23)cc(OC(F)F)n1 [Example 145, N-(4-(6-(tert-butylsulfonyl)-7-methoxyimidazo[1,2-a]pyridin-3-yl)-6-(difluoromethoxy)pyridin-2-yl)propane-1-sulfonamide]	250 to 1000	1 to 2.5	–
COc1cc2ncc(-c3cc(F)c(OC)c(NS(C)(=O)=O)c3)n2cc1S(=O)(=O)C(C)(C)C [Example 272, N-(5-(6-(tert-butylsulfonyl)-7-methoxyimidazo[1,2-a]pyridin-3-yl)-3-fluoro-2-methoxyphenyl)methane-sulfonamide]	50 to 250	1 to 2.5	–
COc1cc2ncc(-c3cc(F)nc(N[C@H](C)CCO)c3)n2cc1S(=O)(=O)C(C)(C)C [Example 230, (3R)-3-({6-fluoro-4-[7-methoxy-6-(2-methylpropane-2-sulfonyl)imidazo[1,2-a]pyridin-3-yl]pyridin-2-yl}amino)butan-1-ol]	250 to 1000	2.5 to 20	–
COc1cn2ncc(-c3cnc(N)c(F)c3)c2cc1S(=O)(=O)C(C)(C)C [Example 97, 5-(5-(tert-butylsulfonyl)-6-methoxypyrazolo[1,5-a]pyridin-3-yl)-3-fluoropyridin-2-amine]	250 to 1000	2.5 to 20	–
COc1cc2ncc(-c3cc(F)nc(NCc4cc[nH]c(=O)c4)c3)n2cc1S(=O)(=O)C(C)(C)C [Example 199, 4-(((4-(6-(tert-butylsulfonyl)-7-methoxyimidazo[1,2-a]pyridin-3-yl)-6-fluoropyridin-2-yl)amino)methyl) pyridin-2(1H)-one]	50 to 250	1 to 2.5	–
CC(C)(C)S(=O)(=O)c1ccc2ncc(-c3cc(F)nc(F)c3)n2c1 [Example 1, 6-(tert-butylsulfonyl)-3-(2,6-difluoropyridin-4-yl)imidazo[1,2-a]pyridine]	> 1000	–	> 20
COc1cc2ncc(-c3cc(F)nc(NCC4CCN(C)C(=O)C4)c3)n2cc1S(=O)(=O)C(C)(C)C (stereo not drawn) [Example 200, 4-(((4-(6-(tert-butylsulfonyl)-7-methoxyimidazo[1,2-a]pyridin-3-yl)-6-fluoropyridin-2-yl)amino)methyl)-1-methylpiperidin-2-one]	< 50	1 to 2.5	–
COc1cc2ncc(-c3cc(F)c(C#N)c(F)c3)n2cc1S(=O)(=O)C(C)(C)C [Example 3, 4-(6-(tert-butylsulfonyl)-7-methoxyimidazo[1,2-a]pyridin-3-yl)-2,6-difluorobenzonitrile]	> 1000	–	> 20
COc1cc2ncc(-c3cc(N)nc(F)c3)n2cc1S(=O)(=O)C(C)(C)C [Example 215, 4-(6-(tert-butylsulfonyl)-7-methoxyimidazo[1,2-a]pyridin-3-yl)-6-fluoropyridin-2-amine]	< 50	–	< 1
COc1cc2ncc(-c3ccc(N)nc3OC)n2cc1S(=O)(=O)C(C)(C)C [Example 79, 5-(6-(tert-butylsulfonyl)-7-methoxyimidazo[1,2-a]pyridin-3-yl)-6-methoxypyridin-2-amine]	> 1000	–	> 20
COc1cc2ncc(-c3cnc(N)c(CO)c3)n2cc1S(=O)(=O)C(C)(C)C [Example 92, (2-amino-5-(6-(tert-butylsulfonyl)-7-methoxyimidazo[1,2-a]pyridin-3-yl)pyridin-3-yl)methanol]	> 1000	–	> 20

SMILES	IC50 [1] [nM]	IC50 [2] [nM]	IC50 [2, 3] [nM]
COc1cc2ncc(-c3cc(F)nc(NCCCN)c3)n2cc1S(=O)(=O)C(C)(C)C [Example 194, N1-(4-(6-(tert-butylsulfonyl)-7-methoxyimidazo[1,2-a]pyridin-3-yl)-6-fluoropyridin-2-yl)propane-1,3-diamine]	< 50	–	< 1
COc1cc2ncc(-c3cc(F)nc(NC[C@@H]4CCNC(=O)C4)c3)n2cc1S(=O)(=O)C(C)(C)C (single isomer, unassigned) [Example 238, (4R or S)-4-[({6-fluoro-4-[7-methoxy-6-(2-methylpropane-2-sulfonyl)imidazo[1,2-a]pyridin-3-yl]pyridin-2-yl}amino)methyl]pi peridin-2-one]	50 to 250	1 to 2.5	–
CC(C)(O)CCNc1cc(-c2cnc3ccc(S(=O)(=O)C(C)(C)C)cn23)cc(F)n1 [Example 174, 4-((4-(6-(tert-butylsulfonyl)imidazo [1,2-a]pyridin-3-yl)-6-fluoropyridin-2-yl)amino)-2-methylbutan-2-ol]	50 to 250	2.5 to 20	–
COc1cc2ncc(-c3cc(N)c(C)c(F)c3)n2cc1S(=O)(=O)C(C)(C)C [Example 35, 5-(6-(tert-butylsulfonyl)-7-methoxyimidazo[1,2-a]pyridin-3-yl)-3-fluoro-2-methylaniline]	> 1000	–	> 20
COc1cc2ncc(-c3cc(F)nc(NCc4ccccc4)c3)n2cc1S(=O)(=O)C(C)(C)C [Example 175, N-benzyl-4-(6-(tert-butylsulfonyl)-7-methoxyimidazo[1,2-a]pyridin-3-yl)-6-fluoropyridin-2-amine]	< 50	< 1	–
COc1cc2ncc(-c3cc(F)cc(F)n3)n2cc1S(=O)(=O)C(C)(C)C [Example 61, 6-(tert-butylsulfonyl)-3-(4,6-difluoropyridin-2-yl)-7-methoxyimidazo[1,2-a]pyridine]	250 to 1000	–	> 20
COc1cc2ncc(-c3cc(F)cc([N+](=O)[O-])c3)n2cc1S(=O)(=O)C(C)(C)C [Example 13, 3-(3-fluoro-5-nitrophenyl)-7-methoxy-6-(2-methylpropane-2-sulfonyl)imidazo[1,2-a]pyridine]	> 1000	> 20	–
COc1cc2ncc(-c3ccnc(NCCCO)c3)n2cc1S(=O)(=O)C(C)(C)C [Example 247, 3-({4-[7-methoxy-6-(2-methylpropane-2-sulfonyl)imidazo[1,2-a]pyridin-3-yl]pyridin-2-yl}amino)propan-1-ol]	< 50	2.5 to 20	–
CCCS(=O)(=O)Nc1cncc(-c2cnc3cc(OC)c(S(=O)(=O)C(C)(C)C)cn23)c1 [Example 254]	> 1000	–	> 20
COc1cc2ncc(-c3cnc(OC(F)F)c(N)c3)n2cc1S(=O)(=O)C(C)(C)C [Example 50, 5-(6-(tert-butylsulfonyl)-7-methoxyimidazo[1,2-a]pyridin-3-yl)-2-(difluoromethoxy)pyridin-3-amine]	> 1000	–	> 20
COc1cc2ncc(-c3ccc(N)c(OC(F)(F)F)c3)n2cc1S(=O)(=O)C(C)(C)C [Example 89, 4-(6-(tert-butylsulfonyl)-7-methoxyimidazo[1,2-a]pyridin-3-yl)-2-(trifluoromethoxy)aniline]	> 1000	2.5 to 20	–
COc1cc2ncc(-c3cnn(CCCO)c3)n2cc1S(=O)(=O)C(C)(C)C [Example 323, 3-(4-(6-(tert-butylsulfonyl)-7-methoxyimidazo[1,2-a]pyridin-3-yl)-1H-pyrazol-1-yl)propan-1-ol]	> 1000	–	> 20
COc1cc2ncc(-c3ccc(N)c(OC(F)F)c3)n2cc1S(=O)(=O)C(C)(C)C [Example 142, 4-(6-(tert-butylsulfonyl)-7-methoxyimidazo[1,2-a]pyridin-3-yl)-2-(difluoromethoxy)aniline]	250 to 1000	2.5 to 20	–
COc1cc2ncc(-c3cccc(N)c3)n2cc1S(=O)(=O)C(C)(C)C [Example 36, 3-(6-(tert-butylsulfonyl)-7-methoxyimidazo[1,2-a]pyridin-3-yl)aniline]	> 1000	–	> 20
COc1cc2ncc(-c3cc(F)nc(NC4CCCC[C@H]4O)c3)n2cc1S(=O)(=O)C(C)(C)C (mixture of isomers) [Example 225, (1R,2R & 1S,2S)-2-((4-(6-(tert-butylsulfonyl)-7-methoxyimidazo[1,2-a]pyridin-3-yl)-6-fluoropyridin-2-yl)amino)cyclohexan-1-ol]	250 to 1000	2.5 to 20	–
CC(C)(C)S(=O)(=O)c1ccc2ncc(-c3cc(N)nc(F)c3)n2c1 [Example 330, 4-(6-(tert-butylsulfonyl)imidazo[1,2-a]pyridin-3-yl)-6-fluoropyridin-2-amine]	250 to 1000	2.5 to 20	–
